T/C data for 15 compounds are collected here from PubChem BioAssay AID256 (DTP/NCI, 2004).

Where “and” joins values, the source holds several entries; their conditions need not be identical. Equal entries are not always repeated. Inconclusive results and toxic doses are left out.

In the assay the test system is CD2F1 mice, L1210 leukemia ip, survival T/C. The experiment in a line: NCI In Vivo Anticancer Drug Screen. Data for tumor model L1210 Leukemia (intraperitoneal) in CD2F1 (CDF1) mice. The conditions noted are these: higher = longer survival. In outline: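 Vehicle-treated tumor-bearing mice served as controls (C) for compound-treated mice (T). Reported figure is T divided by C.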

Where [1] appears, read: endpoint: mean survival time, dose: 200.0 mg/kg/injection, schedule: Q04DX003 (ip), vehicle: saline with Tween-80.
The mark [2] stands for this setting: endpoint: mean survival time, dose: 400.0 mg/kg/injection, schedule: Q04DX003 (ip), vehicle: saline with Tween-80.
Where [3] appears, read: endpoint: mean survival time, dose: 100.0 mg/kg/injection, schedule: Q04DX003 (ip), vehicle: saline with Tween-80.
[4] abbreviates: endpoint: mean survival time, dose: 200.0 mg/kg/injection, schedule: Q01DX009 (ip), vehicle: saline with Tween-80.
Where [5] appears, read: endpoint: mean survival time, dose: 400.0 mg/kg/injection, schedule: Q01DX009 (ip), vehicle: saline with Tween-80.

In the case of `COc1cc2c(cc1OC)C(c1cc(OC)c(OC)c(OC)c1)=NCC2`, the T/C reads like this: (endpoint: mean survival time, dose: 100.0 mg/kg/injection, schedule: Q04DX002 (ip), vehicle: saline with Tween-80) 104 % of control; (endpoint: mean survival time, dose: 200.0 mg/kg/injection, schedule: Q04DX002 (ip), vehicle: saline with Tween-80) 104 % of control; under setting [1], 87 % of control; (endpoint: mean survival time, dose: 400.0 mg/kg/injection, schedule: Q04DX002 (ip), vehicle: saline with Tween-80) 100 % of control; under setting [2], 87 % of control.
As for `O=c1[nH]c(-c2ccccc2)nc(-c2ccccc2)c1CCO`, the T/C runs as follows: under setting [3], 95 % of control; under setting [1], 91 % of control; under setting [2], 106 % of control.
Regarding `CNCCc1ccc2cc(OC)c(OC)cc2c1`, the T/C by setting is: (endpoint: mean survival time, dose: 25.0 mg/kg/injection, schedule: Q01DX009 (ip), vehicle: saline sonified) 104 % of control; (endpoint: mean survival time, dose: 50.0 mg/kg/injection, schedule: Q01DX009 (ip), vehicle: saline sonified) 104 % of control; (endpoint: mean survival time, dose: 100.0 mg/kg/injection, schedule: Q01DX009 (ip), vehicle: saline sonified) 104 % of control.
On to `Nc1ccc(N=Nc2cccnc2)cc1`, for which the T/C runs as follows: (endpoint: mean survival time, dose: 100.0 mg/kg/injection, schedule: Q04DX002 (ip), vehicle: other) 103 % of control; (endpoint: mean survival time, dose: 200.0 mg/kg/injection, schedule: Q04DX002 (ip), vehicle: other) 88 % of control.
As for `CCNCC`, the T/C runs as follows: (endpoint: mean survival time, dose: 100.0 mg/kg/injection, schedule: Q01DX009 (ip), vehicle: saline) 100 % of control; (endpoint: mean survival time, dose: 200.0 mg/kg/injection, schedule: Q01DX009 (ip), vehicle: saline) 94 % of control; (endpoint: mean survival time, dose: 400.0 mg/kg/injection, schedule: Q01DX009 (ip), vehicle: saline) 105 % of control.
In the case of `COC(=O)c1cc(OC)cc(OC)c1`, the T/C runs as follows: (endpoint: mean survival time, dose: 100.0 mg/kg/injection, schedule: Q01DX009 (ip), vehicle: other) 96 % of control; (endpoint: mean survival time, dose: 200.0 mg/kg/injection, schedule: Q01DX009 (ip), vehicle: other) 110 % of control; (endpoint: mean survival time, dose: 400.0 mg/kg/injection, schedule: Q01DX009 (ip), vehicle: other) 91 % of control.
On to `C[C@H](N)C(=O)N[C@@H]1[C@H]2C(=C(O)C[C@@H](O)[C@@H]2O)C(=O)O[C@]1(C)C(Cl)Cl`, for which the T/C by setting is: (endpoint: median survival time, dose: 0.07 mg/kg/injection, schedule: Q03HX024 (ip), vehicle: saline) 106 % of control; (endpoint: median survival time, dose: 0.09 mg/kg/injection, schedule: Q01DX009 (ip), vehicle: saline) 106 % of control and 109 % of control; (endpoint: median survival time, dose: 0.14 mg/kg/injection, schedule: Q03HX024 (ip), vehicle: saline) 120 % of control; (endpoint: median survival time, dose: 0.18 mg/kg/injection, schedule: Q01DX009 (ip), vehicle: saline) 114 % of control and 118 % of control; (endpoint: median survival time, dose: 0.19 mg/kg/injection, schedule: Q01DX009 (ip), vehicle: Klucel (hydroxypropylcellulose) (HPC)) 105 % of control and 110 % of control and 112 % of control; (endpoint: median survival time, dose: 0.21 mg/kg/injection, schedule: Q03HX008 (ip), vehicle: saline) 103 % of control. For the same compound, the T/C by setting is: (endpoint: median survival time, dose: 0.28 mg/kg/injection, schedule: Q03HX024 (ip), vehicle: saline) 124 % of control; (endpoint: median survival time, dose: 0.34 mg/kg/injection, schedule: Q01DX005 (ip), vehicle: saline) 116 % of control; (endpoint: median survival time, dose: 0.34 mg/kg/injection, schedule: Q01DX005 (iv), vehicle: saline) 98 % of control; (endpoint: median survival time, dose: 0.37 mg/kg/injection, schedule: Q01DX009 (ip), vehicle: Klucel (hydroxypropylcellulose) (HPC)) 120 % of control; (endpoint: median survival time, dose: 0.37 mg/kg/injection, schedule: Q01DX009 (ip), vehicle: saline) 124 % of control; (endpoint: median survival time, dose: 0.37 mg/kg/injection, schedule: Q01DX009 (ip), vehicle: water) 118 % of control. For the same compound, the T/C by setting is: (endpoint: median survival time, dose: 0.38 mg/kg/injection, schedule: Q01DX009 (ip), vehicle: Klucel (hydroxypropylcellulose) (HPC)) 117 % of control and 123 % of control and 111 % of control; (endpoint: median survival time, dose: 0.42 mg/kg/injection, schedule: Q03HX008 (ip), vehicle: saline) 116 % of control; (endpoint: median survival time, dose: 0.56 mg/kg/injection, schedule: Q04DX003 (ip), vehicle: saline) 113 % of control; (endpoint: median survival time, dose: 0.68 mg/kg/injection, schedule: Q01DX005 (iv), vehicle: saline) 109 % of control; (endpoint: median survival time, dose: 0.75 mg/kg/injection, schedule: Q01DX009 (ip), vehicle: saline) 150 % of control and 152 % of control and 155 % of control; (endpoint: median survival time, dose: 1.13 mg/kg/injection, schedule: Q04DX003 (ip), vehicle: saline) 116 % of control. The T/C is 155 % of control and 176 % of control and 190 % of control (endpoint: median survival time, dose: 1.5 mg/kg/injection, schedule: Q01DX009 (ip), vehicle: saline); 153 % of control (endpoint: median survival time, dose: 1.5 mg/kg/injection, schedule: Q01DX009 (ip), vehicle: water); 112 % of control (endpoint: median survival time, dose: 1.69 mg/kg/injection, schedule: Q01DX001 (ip), vehicle: saline); 101 % of control (endpoint: median survival time, dose: 1.69 mg/kg/injection, schedule: Q01DX001 (iv), vehicle: saline); 124 % of control (endpoint: median survival time, dose: 2.25 mg/kg/injection, schedule: Q04DX003 (ip), vehicle: saline); 167 % of control (endpoint: median survival time, dose: 2.7 mg/kg/injection, schedule: Q01DX005 (ip), vehicle: saline). In addition, the T/C is, setting by setting: (endpoint: median survival time, dose: 3.0 mg/kg/injection, schedule: Q01DX009 (oral), vehicle: saline) 100 % of control; (endpoint: median survival time, dose: 3.38 mg/kg/injection, schedule: Q01DX001 (ip), vehicle: saline) 116 % of control; (endpoint: median survival time, dose: 3.38 mg/kg/injection, schedule: Q01DX001 (iv), vehicle: saline) 113 % of control; (endpoint: median survival time, dose: 6.0 mg/kg/injection, schedule: Q01DX009 (ip), vehicle: water) 91 % of control; (endpoint: median survival time, dose: 6.0 mg/kg/injection, schedule: Q01DX009 (oral), vehicle: saline) 97 % of control; (endpoint: median survival time, dose: 12.0 mg/kg/injection, schedule: Q01DX009 (oral), vehicle: saline) 100 % of control. The T/C (endpoint: median survival time, dose: 24.0 mg/kg/injection, schedule: Q01DX009 (oral), vehicle: saline) was 112 % of control.
For the compound `CC1(C)SC(C(NC(=O)Cc2ccccc2)C(=O)O)NC1C(=O)O` (stereo not given), the T/C by setting is: under setting [3], 101 % of control; under setting [1], 103 % of control; under setting [2], 95 % of control.
On the same counts, the results for `NCC(OCC(=O)O)C(Cl)(Cl)Cl` (stereo not given) are 101 % of control, 96 % of control and 101 % of control.
As to `CC(C)CC(CC(C)C)=NNc1ccc([N+](=O)[O-])cc1[N+](=O)[O-]`, the T/C was 100 % of control (endpoint: mean survival time, dose: 100.0 mg/kg/injection, schedule: Q01DX001 (ip), vehicle: saline); 103 % of control (endpoint: mean survival time, dose: 200.0 mg/kg/injection, schedule: Q01DX001 (ip), vehicle: saline); 100 % of control (endpoint: mean survival time, dose: 400.0 mg/kg/injection, schedule: Q01DX001 (ip), vehicle: saline).
With `COc1ccc(NC(=O)Nc2cc(Cl)ccc2Cl)cc1`, the T/C under setting [4] was 88 % of control and the T/C under setting [5] was 100 % of control.
For the compound `O=C(C[n+]1ccc2ccccc2c1)c1ccccc1`, the T/C reads like this: (endpoint: mean survival time, dose: 25.0 mg/kg/injection, schedule: Q04DX003 (ip), vehicle: saline sonified) 98 % of control; (endpoint: mean survival time, dose: 50.0 mg/kg/injection, schedule: Q04DX003 (ip), vehicle: saline sonified) 93 % of control.
Consider `O=C1c2ccccc2C(=O)c2c(Cl)cccc21`, for which the T/C (endpoint: mean survival time, dose: 100.0 mg/kg/injection, schedule: Q01DX009 (ip), vehicle: saline with Tween-80) was 88 % of control; the T/C under setting [3] was 93 % of control; the T/C under setting [4] is 86 % of control; the T/C under setting [1] was 93 % of control; the T/C under setting [5] was 90 % of control; the T/C under setting [2] is 91 % of control.
For the compound `CC(C)(C)N`, the T/C reads like this: (endpoint: mean survival time, dose: 100.0 mg/kg/injection, schedule: Q01DX001 (ip), vehicle: saline with Tween-80) 100 % of control; (endpoint: mean survival time, dose: 200.0 mg/kg/injection, schedule: Q01DX001 (ip), vehicle: saline with Tween-80) 97 % of control; (endpoint: mean survival time, dose: 400.0 mg/kg/injection, schedule: Q01DX001 (ip), vehicle: saline with Tween-80) 97 % of control.
Turning to `O=C1C(NCC(O)CO)=C(N2CC2)C(=O)C(NCC(O)CO)=C1N1CC1` (stereo not given), the T/C (endpoint: mean survival time, dose: 1.25 mg/kg/injection, schedule: Q01DX009 (oral), vehicle: saline) is 91 % of control and 103 % of control; the T/C (endpoint: mean survival time, dose: 2.5 mg/kg/injection, schedule: Q01DX009 (oral), vehicle: saline) was 98 % of control; the T/C (endpoint: mean survival time, dose: 10.0 mg/kg/injection, schedule: Q01DX009 (oral), vehicle: saline) was 109 % of control; the T/C (endpoint: mean survival time, dose: 20.0 mg/kg/injection, schedule: Q01DX009 (oral), vehicle: saline) is 104 % of control and 105 % of control; the T/C (endpoint: median survival time, dose: 0.5 mg/kg/injection, schedule: Q01DX009 (ip), vehicle: saline) was 123 % of control; the T/C (endpoint: median survival time, dose: 2.0 mg/kg/injection, schedule: Q01DX009 (ip), vehicle: saline) was 163 % of control. The T/C (endpoint: median survival time, dose: 4.0 mg/kg/injection, schedule: Q01DX009 (ip), vehicle: saline) is 228 % of control and the T/C (endpoint: median survival time, dose: 8.0 mg/kg/injection, schedule: Q01DX009 (ip), vehicle: saline) was 195 % of control.
